Measured values published in publication PMC9230548, “Synthesis and Biological Evaluation of Novel Synthetic Indolone Derivatives as Anti-Tumor Agents Targeting p53-MDM2 and p53-MDMX” (Molecules, 2022).
Like-named read-outs stand apart in the source and are kept apart here.

What was measured:
MDM2 = MDM2 (Homo sapiens, UniProt Q00987); assay: fluorescence polarization assay, MDM2 binding
Experimental: (§3) The MDM2 and MDMX binding evaluation for the target compounds was carried out using the fluorescence polarization assay.
(§4) Dose-dependent MDM2 and MDMX binding evaluations were carried out using the fluorescence polarization assay.
(§5) A total of 30 nM preincubated (30 min) MDM2 (or MDMX) and 10 nM PMDM-F peptide in reaction buffer (100 μL, potassium phosphate, 100 mM; bovine gamma globulin, 100 mg/mL; sodium azide, 0.02%) were added into a 96-well plate containing the tested compounds at pH 7.5.

MDMX = biological target: T1, MDMX (Homo sapiens, UniProt O15151); assay: fluorescence polarization assay, MDMX binding
T1 sequence (O15151 1-490): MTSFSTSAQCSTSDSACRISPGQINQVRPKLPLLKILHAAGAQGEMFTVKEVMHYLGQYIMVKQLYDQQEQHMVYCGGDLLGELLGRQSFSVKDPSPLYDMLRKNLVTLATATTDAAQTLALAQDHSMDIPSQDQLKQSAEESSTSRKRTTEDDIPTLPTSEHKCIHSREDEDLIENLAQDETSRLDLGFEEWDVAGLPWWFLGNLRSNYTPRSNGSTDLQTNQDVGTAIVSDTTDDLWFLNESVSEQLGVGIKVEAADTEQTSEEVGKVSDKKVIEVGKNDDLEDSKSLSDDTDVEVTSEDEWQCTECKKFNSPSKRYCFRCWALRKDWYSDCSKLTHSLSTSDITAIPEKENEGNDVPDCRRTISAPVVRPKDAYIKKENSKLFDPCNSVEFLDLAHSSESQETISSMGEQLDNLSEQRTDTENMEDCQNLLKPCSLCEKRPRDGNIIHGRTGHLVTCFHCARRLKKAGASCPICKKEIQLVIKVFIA
Experimental: as §3, §4, §5

HCT116 cell line = assay: MTT assay, HCT116; type: cell-based; conditions: average of three determinations
Experimental: (§1) Compounds were tested at six concentrations (0.001–100 μM).
(§2) The cells were seeded into a 96-well plate and allowed to attach overnight, after which various concentrations of test compounds or DMSO were added to the culture medium and the cells were incubated for 48 h at 37 °C in a 5% CO2 humidified incubator. Then, 20 μL of 0.5% the fresh MTT solution was added to each well. After incubation for another 4 h, the culture medium was removed and 150 μL of DMSO was added to dissolve the formazan crystals. The absorbance at 540 nm was measured using a microplate reader. The results, expressed as IC50 values, were the average of three determinations and were calculated using nonlinear regression analysis.

MCF7 cell line = assay: MTT assay, MCF7; type: cell-based; conditions: average of three determinations
Experimental: as §1, §2

A549 cell line = assay: MTT assay, A549; type: cell-based; conditions: average of three determinations
Experimental: as §1, §2

[1] = read-out: Ki (μM) ± SD MDM2, fluorescence polarization, PMDM-F peptide, pH 7.5
[2] = read-out: Ki (μM) ± SD MDMX, fluorescence polarization, PMDM-F peptide, pH 7.5

Sequence of MDM2 (Q00987 whole entry): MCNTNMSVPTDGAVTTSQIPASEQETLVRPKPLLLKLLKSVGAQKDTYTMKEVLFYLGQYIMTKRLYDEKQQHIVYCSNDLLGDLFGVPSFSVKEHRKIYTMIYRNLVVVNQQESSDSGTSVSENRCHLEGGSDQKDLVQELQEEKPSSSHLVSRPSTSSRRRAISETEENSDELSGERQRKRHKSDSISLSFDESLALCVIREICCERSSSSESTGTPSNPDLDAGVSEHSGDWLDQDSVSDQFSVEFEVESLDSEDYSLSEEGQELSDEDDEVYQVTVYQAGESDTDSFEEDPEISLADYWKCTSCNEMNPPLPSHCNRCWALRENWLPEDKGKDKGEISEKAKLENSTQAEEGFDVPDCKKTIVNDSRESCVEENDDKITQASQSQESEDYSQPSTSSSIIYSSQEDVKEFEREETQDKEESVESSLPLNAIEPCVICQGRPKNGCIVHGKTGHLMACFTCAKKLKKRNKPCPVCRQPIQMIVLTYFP

| Structure (SMILES) | melting point | Ki (MDM2) | Ki (MDMX) | other results |
| --- | --- | --- | --- | --- |
| O=C1/C(=C/c2cccc(Cl)c2)c2ccccc2N1C(=O)c1ccc(Cl)cc1 [Compound B9, (E)-1-(4-chlorobenzoyl)-3-(3-chlorobenzylidene)indolin-2-one] | 103.5 to 104.8 °C | 15.9 ± 1.96 µM | > 50 µM |  |
| O=C1/C(=C/c2cccc(Cl)c2)c2ccccc2N1C(=O)c1cccc(Cl)c1 [Compound B8, (E)-1-(3-chlorobenzoyl)-3-(3-chlorobenzylidene)indolin-2-one] | 112.4 to 114 °C | 8.63 ± 1.55 µM | > 50 µM |  |
| O=C1/C(=C/c2ccccc2Cl)c2ccccc2N1S(=O)(=O)c1ccccc1Cl [Compound A5, (E)-3-(2-chlorobenzylidene)-1-((2-chlorophenyl)sulfonyl)indolin-2-one] | 157.2 to 158.1 °C | 3.43 ± 0.57 µM | 42.1 ± 6.35 µM |  |
| O=C1/C(=C/c2ccc(Cl)cc2)c2ccccc2N1C(=O)c1cccc(Cl)c1 [Compound B10, (E)-1-(3-chlorobenzoyl)-3-(4-chlorobenzylidene)indolin-2-one] | 141.3 to 142.3 °C | 12.5 ± 1.04 µM | > 50 µM |  |
| Cc1ccccc1C(=O)N1C(=O)/C(=C/c2ccccc2Cl)c2ccccc21 [Compound B4, (E)-3-(2-chlorobenzylidene)-1-(2-methylbenzoyl)indolin-2-one] | 111.2 to 112.8 °C | 16.4 ± 2.77 µM | > 50 µM |  |
| O=C1/C(=C/c2ccccc2Cl)c2ccccc2N1S(=O)(=O)c1ccc(Cl)cc1 [Compound A7, (E)-3-(2-chlorobenzylidene)-1-((4-chlorophenyl)sulfonyl)indolin-2-one] | 172.4 to 173.1 °C | 1.53 ± 0.19 µM | 20.4 ± 2.62 µM |  |
| Cc1ccccc1S(=O)(=O)N1C(=O)/C(=C/c2ccccc2Cl)c2ccccc21 [Compound A2, (E)-3-(2-chlorobenzylidene)-1-(o-tolylsulfonyl)indolin-2-one] |  | 7.23 ± 1.03 µM | > 50 µM |  |
| O=C1/C(=C/c2cccc(Cl)c2)c2ccccc2N1S(=O)(=O)c1cccc([N+](=O)[O-])c1 [Compound A22, (E)-3-(3-chlorobenzylidene)-1-((3-nitrophenyl)sulfonyl)indolin-2-one] | 195.3 to 197 °C | 1.39 ± 0.21 µM | 13.6 ± 1.47 µM |  |
| Cc1ccc(S(=O)(=O)N2C(=O)/C(=C/c3ccc(Cl)cc3)c3ccccc32)cc1 [Compound A26, (E)-3-(4-chlorobenzylidene)-1-tosylindolin-2-one] | 134.1 to 135.6 °C |  |  | Ki (MDM2; [1]): 4.68 ± 0.39 µM; Ki (MDMX; [2]): > 50 µM |
| O=C1/C(=C/c2cccc(Cl)c2)c2ccc(Cl)cc2N1S(=O)(=O)c1cccc(Cl)c1 [Compound A30, (E)-6-chloro-3-(3-chlorobenzylidene)-1-((3-chlorophenyl)sulfonyl)indolin-2-one] | 132.6 to 133.8 °C |  |  | Ki (MDM2; [1]): 1.39 ± 0.15 µM; Ki (MDMX; [2]): 29 ± 2.18 µM |
| Cc1cccc(S(=O)(=O)N2C(=O)/C(=C/c3cccc(Cl)c3)c3ccccc32)c1 [Compound A10, (E)-3-(3-chlorobenzylidene)-1-(m-tolylsulfonyl)indolin-2-one] | 147.4 to 149.2 °C |  |  | Ki (MDM2; [1]): 5.36 ± 1.06 µM; Ki (MDMX; [2]): > 50 µM |
| Cc1ccc(C(=O)N2C(=O)/C(=C/c3ccccc3Cl)c3ccccc32)cc1 [Compound B6, (E)-3-(2-chlorobenzylidene)-1-(4-methylbenzoyl)indolin-2-one] | 145.3 to 146.9 °C | 22.4 ± 3.64 µM | > 50 µM |  |
| Cc1cccc(C(=O)N2C(=O)/C(=C/c3ccccc3Cl)c3ccccc32)c1 [Compound B5, (E)-3-(2-chlorobenzylidene)-1-(3-methylbenzoyl)indolin-2-one] | 128.2 to 129.7 °C | 20.2 ± 3.05 µM | > 50 µM |  |
| O=C1/C(=C/c2ccccc2Cl)c2ccccc2N1S(=O)(=O)c1cccc(Cl)c1 [Compound A6, (E)-3-(2-chlorobenzylidene)-1-((3-chlorophenyl)sulfonyl)indolin-2-one] |  | 0.92 ± 0.11 µM | 17.4 ± 2.78 µM | IC50 (HCT116 cell line; Homo sapiens, HCT-116, 48 h): 10.7 ± 1.47 µM; IC50 (MCF7 cell line; Homo sapiens, MCF7, 48 h): 25.5 ± 3.61 µM; IC50 (A549 cell line; Homo sapiens, A549, 48 h): 18.7 ± 2.49 µM |
| Cc1ccccc1S(=O)(=O)N1C(=O)/C(=C/c2ccc(Cl)cc2)c2ccccc21 [Compound A24, (E)-3-(4-chlorobenzylidene)-1-(o-tolylsulfonyl)indolin-2-one] | 155.2 to 157.1 °C |  |  | Ki (MDM2; [1]): 3.17 ± 0.37 µM; Ki (MDMX; [2]): 34.7 ± 4.02 µM |
| O=C1/C(=C/c2cccc(Cl)c2)c2ccccc2N1C(=O)c1ccccc1Cl [Compound B7, (E)-1-(2-chlorobenzoyl)-3-(3-chlorobenzylidene)indolin-2-one] | 108.3 to 109.7 °C | 14.9 ± 2.37 µM | > 50 µM |  |

| Structure (SMILES) | melting point | Ki (MDM2) | Ki (MDMX) | other results |
| --- | --- | --- | --- | --- |
| O=C1/C(=C/c2ccccc2Cl)c2ccccc2N1S(=O)(=O)c1ccccc1 [Compound A1, (E)-3-(2-chlorobenzylidene)-1-(phenylsulfonyl)indolin-2-one] | 138.2 to 139.9 °C | 4.39 ± 0.82 µM | > 50 µM |  |
| COc1ccc(S(=O)(=O)N2C(=O)/C(=C/c3cccc(Cl)c3)c3ccccc32)cc1 [Compound A23, (E)-3-(3-chlorobenzylidene)-1-((4-methoxyphenyl)sulfonyl)indolin-2-one] | 175.1 to 176.7 °C | 3.77 ± 0.45 µM | 42.2 ± 4.73 µM |  |
| O=C1/C(=C/c2cccc(Cl)c2)c2ccccc2N1S(=O)(=O)c1ccc(Br)cc1 [Compound A17] |  |  |  | IC50 (HCT116 cell line; 48 h): 25.5 ± 3.26 µM; IC50 (MCF7 cell line; 48 h): 37.7 ± 3.65 µM; IC50 (A549 cell line; 48 h): 34.2 ± 3.39 µM; Ki (MDM2; [1]): 0.49 ± 0.15 µM; Ki (MDMX; [2]): 43.2 ± 4.95 µM |
| Cc1ccc(S(=O)(=O)N2C(=O)/C(=C/c3cccc(Cl)c3)c3ccccc32)cc1 [Compound A11, (E)-3-(3-chlorobenzylidene)-1-tosylindolin-2-one] | 136.3 to 138.1 °C | 5.19 ± 1.25 µM | > 50 µM |  |
| O=C1/C(=C/c2ccccc2Cl)c2ccccc2N1C(=O)c1ccccc1Cl [Compound B1, (E)-1-(2-chlorobenzoyl)-3-(2-chlorobenzylidene)indolin-2-one] | 214.5 to 216.2 °C | 10.2 ± 2.01 µM | > 50 µM |  |
| O=C1/C(=C/c2cccc(Cl)c2)c2ccccc2N1S(=O)(=O)c1ccccc1Br [Compound A15] |  |  |  | IC50 (HCT116 cell line; 48 h): 23.8 ± 2.69 µM; IC50 (MCF7 cell line; 48 h): 31.1 ± 3.55 µM; IC50 (A549 cell line; 48 h): 29.1 ± 3.31 µM; Ki (MDM2; [1]): 0.34 ± 0.12 µM; Ki (MDMX; [2]): 24.4 ± 2.57 µM |
| COc1ccc(C2=N[C@@H](c3ccc(Cl)cc3)[C@@H](c3ccc(Cl)cc3)N2C(=O)N2CCNC(=O)C2)c(OC(C)C)c1 [Nutlin-3a, reference compound] |  |  |  | IC50 (HCT116 cell line; 48 h): 18.1 ± 2.17 µM; IC50 (MCF7 cell line; 48 h): 32.2 ± 1.49 µM; IC50 (A549 cell line; 48 h): 21.7 ± 2.04 µM |
| Cc1ccc(S(=O)(=O)N2C(=O)/C(=C/c3ccccc3Cl)c3ccccc32)cc1 [Compound A4, (E)-3-(2-chlorobenzylidene)-1-tosylindolin-2-one] | 148.9 to 150.5 °C | 10.2 ± 1.45 µM | > 50 µM |  |
| O=C1/C(=C/c2ccccc2Cl)c2ccccc2N1C(=O)c1ccc(Cl)cc1 [Compound B3, (E)-1-(4-chlorobenzoyl)-3-(2-chlorobenzylidene)indolin-2-one] | 221.3 to 222.7 °C | 7.86 ± 1.34 µM | > 50 µM |  |
| O=C1/C(=C/c2ccc(Cl)cc2)c2ccccc2N1S(=O)(=O)c1ccccc1 [Compound A28, (E)-3-(4-chlorobenzylidene)-1-(phenylsulfonyl)indolin-2-one] |  | 2.18 ± 0.29 µM | 37.4 ± 3.57 µM |  |
| Cc1cccc(S(=O)(=O)N2C(=O)/C(=C/c3ccc(Cl)cc3)c3ccccc32)c1 [Compound A25, (E)-3-(4-chlorobenzylidene)-1-(m-tolylsulfonyl)indolin-2-one] |  |  |  | Ki (MDM2; [1]): 4.93 ± 0.47 µM; Ki (MDMX; [2]): > 50 µM |
| O=C1/C(=C/c2cccc(Cl)c2)c2ccccc2N1S(=O)(=O)c1ccccc1 [Compound A8, (E)-3-(3-chlorobenzylidene)-1-(phenylsulfonyl)indolin-2-one] | 115.1 to 117.3 °C | 1.47 ± 0.15 µM | 10.3 ± 1.45 µM |  |
| O=C1/C(=C/c2ccccc2Cl)c2ccccc2N1C(=O)c1cccc(Cl)c1 [Compound B2, (E)-1-(3-chlorobenzoyl)-3-(2-chlorobenzylidene)indolin-2-one] | 219 to 220.8 °C | 8.43 ± 1.58 µM | > 50 µM |  |
| Cc1ccccc1S(=O)(=O)N1C(=O)/C(=C/c2cccc(Cl)c2)c2ccccc21 [Compound A9, (E)-3-(3-chlorobenzylidene)-1-(o-tolylsulfonyl)indolin-2-one] | 140.9 to 143.2 °C |  |  | Ki (MDM2; [1]): 6.95 ± 0.97 µM; Ki (MDMX; [2]): > 50 µM |
| Cc1cccc(S(=O)(=O)N2C(=O)/C(=C/c3ccccc3Cl)c3ccccc32)c1 [Compound A3, (E)-3-(2-chlorobenzylidene)-1-(m-tolylsulfonyl)indolin-2-one] |  | 5.58 ± 0.99 µM | > 50 µM |  |
